SMILES strings stand for the structures.

In patent publication US12157746B2, “Tetrahydro-1H-pyrazino[2,1-a]isoindolylquinoline compounds for the treatment of autoimmune disease” (F. HOFFMANN-LA ROCHE AG, priority 2018, dated 2024) one finds IC50 data, which are given here for ten compounds.

This assay has as its target T1, human TLR7 (Homo sapiens, UniProt Q9NYK1).
T1 sequence (Q9NYK1 27-1049): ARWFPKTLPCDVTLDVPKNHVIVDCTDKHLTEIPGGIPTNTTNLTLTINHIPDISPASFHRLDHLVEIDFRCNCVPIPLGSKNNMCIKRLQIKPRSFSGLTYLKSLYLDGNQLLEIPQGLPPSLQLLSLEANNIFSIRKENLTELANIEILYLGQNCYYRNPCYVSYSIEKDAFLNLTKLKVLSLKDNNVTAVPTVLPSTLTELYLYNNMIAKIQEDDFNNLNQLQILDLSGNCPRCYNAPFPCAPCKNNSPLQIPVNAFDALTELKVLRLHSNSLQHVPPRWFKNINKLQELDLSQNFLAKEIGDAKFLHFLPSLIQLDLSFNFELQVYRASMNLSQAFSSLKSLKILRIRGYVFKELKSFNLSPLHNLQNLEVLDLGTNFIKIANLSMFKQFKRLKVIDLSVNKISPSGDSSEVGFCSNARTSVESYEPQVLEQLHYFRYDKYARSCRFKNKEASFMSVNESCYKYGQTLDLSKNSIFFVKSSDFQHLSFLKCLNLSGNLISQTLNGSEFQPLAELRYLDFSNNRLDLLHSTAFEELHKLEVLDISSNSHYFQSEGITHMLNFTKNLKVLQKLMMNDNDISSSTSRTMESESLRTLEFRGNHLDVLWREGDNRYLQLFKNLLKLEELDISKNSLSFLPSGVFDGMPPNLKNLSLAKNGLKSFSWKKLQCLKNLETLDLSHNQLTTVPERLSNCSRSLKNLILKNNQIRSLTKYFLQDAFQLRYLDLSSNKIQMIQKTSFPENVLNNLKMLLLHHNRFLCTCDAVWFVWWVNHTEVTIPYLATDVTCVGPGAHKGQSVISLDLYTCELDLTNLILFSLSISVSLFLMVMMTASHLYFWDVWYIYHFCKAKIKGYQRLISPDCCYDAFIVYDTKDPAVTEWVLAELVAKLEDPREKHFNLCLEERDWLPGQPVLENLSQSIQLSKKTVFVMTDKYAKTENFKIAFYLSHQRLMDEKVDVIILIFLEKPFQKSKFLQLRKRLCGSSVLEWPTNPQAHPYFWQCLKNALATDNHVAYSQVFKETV
Put plainly: HEK293-Blue-hTLR-7 cells assay. Format: cell-based. The conditions noted are these: HEK293-Blue-hTLR7 cells, R848 stimulation, 20 hrs, SEAP reporter; read-out: HEK/hTLR7 IC50. From the text: HEK293-Blue-hTLR-7 Cells Assay:
A stable HEK293-Blue-hTLR-7 cell line was purchased from InvivoGen (Cat. #: hkb-htlr7, San Diego, California, USA). These cells were originally designed for studying the stimulation of human TLR7 by monitoring the activation of NF-κB. A SEAP (secreted embryonic alkaline phosphatase) reporter gene was placed under the control of the IFN-β minimal promoter fused to five NF-κB and AP-1-binding sites. The SEAP was induced by activating NF-κB and AP-1 via stimulating HEK-Blue hTLR7 cells with TLR7 ligands. Therefore the reporter expression was declined by TLR7 antagonist under the stimulation of a ligand, such as R848 (Resiquimod), for incubation of 20 hrs. The cell culture supernatant SEAP reporter activity was determined using QUANTI-Blue™ kit (Cat. #: rep-qb1, Invivogen, San Diego, Ca. USA) at a wavelength of 640 nm, a detection medium that turns purple or blue in the presence of alkaline phosphatase.
HEK293-Blue-hTLR7 cells were incubated at a density of 250,000˜450,000 cells/mL in a volume of 170 μL in a 96-well plate in Dulbecco's Modified Eagle's medium (DMEM) containing 4.5 g/L glucose, 50 U/mL penicillin, […], […], 2 mM L-glutamine, 10% (v/v) heat-inactivated fetal bovine serum with addition of 20 μL test compound 1n a serial dilution in the presence of final DMSO at 1% and 10 μL of 20 uM R848 in above DMEM, perform incubation under 37° C. in a CO2 incubator for 20 hrs. Then 20 μL of the supernatant from each well was incubated with 180 μL Quanti-blue substrate solution at 37° C. for 2 hrs and the absorbance was read at 620-655 nm using a spectrophotometer. The signaling pathway that TLR7 activation leads to downstream NF-κB activation has been widely accepted, and therefore similar reporter assay was modified for evaluating TLR7 antagonist.
In the case of `C[C@@H]1CN(c2ccc(C#N)c3ncccc23)C[C@@H]2c3ccc(N4CCN[C@H](CO)C4)cc3CN12` [Example 12, 5-[(4R,10bS)-8-[(3S)-3-(hydroxymethyl)piperazin-1-yl]-4-methyl-3,4,6,10b-tetrahydro-1H-pyrazino[2,1-a]isoindol-2-yl]quinoline-8-carbonitrile], the IC50 was less than 3.2 nM. With `C[C@@H]1CN(c2ccc(C#N)c3ncccc23)C[C@@H]2c3ccc(N4C[C@@H](N)[C@](C)(O)C4)cc3CN12` [Example 45, 5-[(4R,10bS)-4-methyl-8-[trans-(3R,4R)-4-amino-3-hydroxy-3-methyl-pyrrolidin-1-yl]-3,4,6,10b-tetrahydro-1H-pyrazino[2,1-a]isoindol-2-yl]quinoline-8-carbonitrile], the IC50 is 4.5 nM. For `CO[C@H]1CN(c2ccc3c(c2)CN2[C@H](C)CN(c4ccc(C#N)n5nccc45)C[C@H]32)C[C@@H]1N` [Example 95, 4-[(4R,10bS)-8-[(3S,4S)-3-amino-4-methoxy-pyrrolidin-1-yl]-4-methyl-3,4,6,10b-tetrahydro-1H-pyrazino[2,1-a]isoindol-2-yl]pyrazolo[1,5-a]pyridine-7-carbonitrile] the value was 20.8 nM; for `[2H]c1ccc2c(N3C[C@@H](C)N4Cc5cc(N6CC7CNCC(C6)O7)ccc5[C@H]4C3)ccc(C#N)c2n1` [Example 93, 5-[(4R,10bS)-4-methyl-8-(9-oxa-3,7-diazabicyclo[3.3.1]nonan-3-yl)-3,4,6,10b-tetrahydro-1H-pyrazino[2,1-a]isoindol-2-yl]-2-deuterio-quinoline-8-carbonitrile], 3.8 nM; for `CO[C@@H]1CN(c2ccc3c(c2)CN2[C@H](C)CN(c4ccc(C#N)n5ncc(F)c45)C[C@H]32)C[C@H]1N` [Example 113, 4-[(4R,10bS)-8-[(3R,4R)-3-amino-4-methoxy-pyrrolidin-1-yl]-4-methyl-3,4,6,10b-tetrahydro-1H-pyrazino[2,1-a]isoindol-2-yl]-3-fluoro-pyrazolo[1,5-a]pyridine-7-carbonitrile], 6 nM.

As for `C[C@@H]1CN(c2ccc(C#N)c3ncccc23)C[C@@H]2c3ccc(N4CCC(N)(CO)C4)cc3CN12` (stereo partly drawn) [Example 19, 5-[(4R,10bS)-8-[3-amino-3-(hydroxymethyl)pyrrolidin-1-yl]-4-methyl-3,4,6,10b-tetrahydro-1H-pyrazino[2,1-a]isoindol-2-yl]quinoline-8-carbonitrile], the IC50 is 3.6 nM. The value for `C[C@@H]1CN(c2ccc(C#N)c3ncccc23)C[C@@H]2c3ccc(N[C@H]4CNC[C@H]4F)cc3CN12` [Example 30, 5-[(4R,10bS)-8-[[(3S,4R)-4-fluoropyrrolidin-3-yl]amino]-4-methyl-3,4,6,10b-tetrahydro-1H-pyrazino[2,1-a]isoindol-2-yl]quinoline-8-carbonitrile] was less than 3.2 nM; that for `C[C@@H]1CN(c2ccc(C#N)c3ncccc23)C[C@@H]2c3ccc(N4CC(N)C5(COC5)C4)cc3CN12` (stereo partly drawn) [Example 18, 5-[(4R,10bS)-8-(5-amino-2-oxa-7-azaspiro[3.4]octan-7-yl)-4-methyl-3,4,6,10b-tetrahydro-1H-pyrazino[2,1-a]isoindol-2-yl]quinoline-8-carbonitrile] was 4.9 nM.

As to `[2H]c1ccc2c(N3C[C@@H](C)N4Cc5cc(N6CC(C)(N)C6)ccc5[C@H]4C3)ccc(C#N)c2n1` [Example 92, 5-[(4R,10bS)-8-(3-amino-3-methyl-azetidin-1-yl)-4-methyl-3,4,6,10b-tetrahydro-1H-pyrazino[2,1-a]isoindol-2-yl]-2-deuterio-quinoline-8-carbonitrile], the IC50 amounted to 3.1 nM. Regarding `C[C@@H]1CN(c2ccc(C#N)c3ncccc23)C[C@@H]2c3ccc(N4CCNCC(O)C4)cc3CN12` (stereo partly drawn) [Example 15, 5-[(4R,10bS)-8-(6-hydroxy-1,4-diazepan-1-yl)-4-methyl-3,4,6,10b-tetrahydro-1H-pyrazino[2,1-a]isoindol-2-yl]quinoline-8-carbonitrile], the IC50 was found to be 5.8 nM.
